Tested on: TGF-β1-induced MRC-5 cells
Assay: Western blot of p-CREB
Type: cell-based, human
Conditions: 10 µM
Procedure: Western Blot analysis was performed according to a standard protocol. Briefly, MRC-5 cells were pre-incubated with the study compounds (10 µM) for 1 h, followed by 48 h incubation with TGF-β1 and then lysed in RIPA buffer (RIPA Lysis and Extraction Buffer, Thermo Fisher Scientific, Waltham, MA, USA) and supplemented with protease inhibitor cocktail and phosphatase inhibitor cocktail (both from Sigma Aldrich, St. Louis, MO, USA). Equal amounts of protein (30 µg) were separated using 10% SDS-polyacrylamide gels and transferred onto polyvinylidene difluoride (PVDF) membranes (Thermo Fisher Scientific, Waltham, MA, USA). […] ROD was measured according to the NIH guidelines with Fiji ImageJ Software. […]

CCCCOc1nc2c(c(=O)n(C)c(=O)n2C)n1CCCC(=O)Nc1cc(C(C)(C)C)ccc1O [Compound 145, 4-(8-butoxy-1,3-dimethyl-2,6-dioxo-1,2,3,6-tetrahydro-7H-purin-7-yl)-N-(5-(tert-butyl)-2-hydroxyphenyl)butanamide]
CREB phosphorylation (immunoblot): increased CREB phosphorylation

Reference: publication PMC7312375, “A Novel, Pan-PDE Inhibitor Exerts Anti-Fibrotic Effects in Human Lung Fibroblasts via Inhibition of TGF-β Signaling and Activation of cAMP/PKA Signaling” (International Journal of Molecular Sciences, 2020)
